Test results: patent publication US20170087106A1, “Method for supporting gut health” (priority 2015, published 2017)
Marks after values point to notes of the source that are not given here.

Experiments:
[1] = system: experimental model of irritable bowel syndrome (IBS) in rats induced by deoxycholic acid (DCA); experiment: DCA-induced IBS in rats: referred pain with Von Frey filaments (AUC); assay type: in vivo, rat; conditions: for referred pain (in words): Von Frey filaments; for AUC: oral daily, mean ± SEM
Protocol: (§1) Male Sprague Dawley rats (240-320 g) were administered DCA once daily on 3 consecutive days, and then divided into the different experimental groups (n=8): three received orally and daily CPM (40 and 100 mg/kg) or Gabapentin (70 mg/kg); a non IBS and an untreated control IBS group were also included. One and two weeks after, abdominal withdrawal reflex to colorectal distension (CRD) was semi quantitatively scored. Also the referred pain was evaluated with Von Frey filaments. After two weeks of treatment, all rats were sacrificed and the expression of different markers IL-1β and COX-2 evaluated in the colonic tissue by qPCR.

[2] = system: experimental model of irritable bowel syndrome (IBS) in rats induced by deoxycholic acid (DCA); experiment: DCA-induced IBS in rats: abdominal withdrawal reflex to colorectal distension (CRD); assay type: in vivo, rat; conditions: oral daily, mean ± SEM
Protocol: as §1

IL-1β [3] = experiment: DCA-induced IBS in rats: colonic IL-1β expression by qPCR; assay type: in vivo, rat; conditions: colonic tissue, two weeks oral daily, mean ± SEM
Protocol: as §1

COX-2 = experiment: DCA-induced IBS in rats: colonic COX-2 expression by qPCR; assay type: in vivo, rat; conditions: colonic tissue, two weeks oral daily, mean ± SEM
Protocol: as §1

MUC-2 = experiment: TNBS rat colitis: colonic MUC-2 mRNA by real-time PCR; assay type: in vivo; conditions: colon, oral daily 7 days, mean ± SEM
Protocol: (§2) Female Wistar rats (180-200 g) were randomly assigned to nine groups (n=10). Three groups received treatment with CaPyr (20, 40 and 100 mg/kg); other three received treatment with ethyl pyruvate (20, 40 and 100 mg/kg); and the remaining was treated with sulphasalazine (30 mg/kg). All compounds were dissolved in 1 ml of carboxymethylcellulose (0.2%) in water solution, and administered daily by oral gavage. An untreated TNBS control group and a non-colitic group were included for reference, which received the vehicle used to administer the test compounds. Colonic inflammation was induced in control and treated groups as generally described (see Galvez et al. 2014). Briefly, rats were fasted overnight, anesthetized with halothane and given TNBS dissolved in 0.25 ml of 50% ethanol (v/v) by means of a Teflon cannula inserted 8 cm through the anus. During and after TNBS administration, the rats were kept in a head-down position until they recovered from anaesthesia, and then returned to their cages. Rats from the non-colitic group were administered intracolonically 0.25 ml of phosphate buffered saline instead of TNBS. The treatments were given from the day of the colitis induction until the sacrifice of the rats with an overdose of halothane, seven days later. Animal body weights, occurrence of diarrhoea, and water and food intake were recorded daily throughout all the experiments. Once the animals were sacrificed, the colon was removed aseptically and placed on an ice-cold plate, longitudinally opened and cleaned from their luminal contents with cold saline. Afterwards, it was weighed and its length measured under a constant load (2 g). Each colon was scored for macroscopically visible damage on a 0-10 scale by two observers unaware of the experiment, according to the criteria described before (see Galvez et al. 2014). Colon samples (0.5 cm^2) containing all the layers were taken from a region of the inflamed colon corresponding to the adjacent segment to the gross macroscopic damage and were fixed in 4% buffered formaldehyde for the histological studies. Equivalent colonic segments were also obtained from the non-colitic group. The colon was subsequently minced, aliquoted and kept frozen at −80° C. until biochemical determinations and RNA extraction was performed.
(§3) Analysis of gene expression in colonic samples by RT-qPCR Total RNA from colonic samples was isolated using Trizol® (Thermo Fisher Scientific Inc., Waltham, Mass. USA) following the manufacturer's protocol. All RNA samples were quantified with the Thermo Scientific NanoDrop™ 2000 Spectrophotometer (Thermo Fisher Scientific Inc., Waltham, Mass. USA) and […] of RNA were reverse transcribed using oligo(dT) primers (Promega, Southampton, UK).
(§4) Real time quantitative PCR amplification and detection was performed on optical-grade 48 well plates in an Eco™ Real-Time PCR System (Illumina, CA, USA) with 20 ng of cDNA, the KAPA SYBR® FAST qPCR Master Mix (Illumina, CA, USA) and specific primers at their annealing temperature (Ta). To normalize mRNA expression, the expression of the housekeeping gene, glyceraldehyde-3-phosphate dehydrogenase (GAPDH) was measured. The mRNA relative quantitation was calculated using the ΔΔCt method.

IL-17 = experiment: TNBS rat colitis: colonic IL-17 mRNA by real-time PCR; assay type: in vivo; conditions: colon, oral daily 7 days, mean ± SEM
Protocol: as §2, §3, §4

IL-1β [4] = experiment: TNBS rat colitis: colonic IL-1β mRNA by real-time PCR; assay type: in vivo; conditions: colon, oral daily 7 days, mean ± SEM
Protocol: as §2, §3, §4

IL-12 = experiment: TNBS rat colitis: colonic IL-12 mRNA by real-time PCR; assay type: in vivo; conditions: colon, oral daily 7 days, mean ± SEM
Protocol: as §2, §3, §4

myeloperoxidase (MPO) = experiment: TNBS rat colitis: colonic myeloperoxidase (MPO) activity; assay type: in vivo; conditions: colonic tissue, oral daily 7 days, mean ± SEM
Protocol: as §2
(§5) Myeloperoxidase (MPO) activity was measured according to the technique described previously (Krawiszet al., 1984); the results were expressed as MPO units per gram of wet tissue; one unit of MPO activity was defined as that degrading 1 μmol hydrogen peroxide/min at 25° C. Total glutathione (GSH) content was quantified with the recycling assay described by Anderson (1985), and the results were expressed as nmol/g wet tissue. In order to evaluate tissue IL-1β levels, the colonic samples were homogenized in phosphate buffered saline supplemented with 0.1% sodium dodecyl sulfate (SDS), 0.1% sodium deoxycholate, 1% Triton X-100 and protease and phosphatase inhibitors (aprotinin, leupeptin and phenylmethylsulfonyl fluoride). The cytokine was quantified by enzyme-linked immunoabsorbent assay (R&D Systems Inc., Minneapolis, Minn., USA) and the results were expressed as pg/g wet tissue.

[5] = system: TNBS experimental rat colitis; experiment: TNBS rat colitis: colonic macroscopic damage score and weight/length ratio; assay type: in vivo; conditions: for Damage Score (0-10) / Weight/length: TNBS rat colitis, oral daily 7 days, mean ± SEM; for Weight/length: colon
Protocol: as §2

IL-23 = experiment: TNBS rat colitis: colonic IL-23 mRNA by real-time PCR; assay type: in vivo; conditions: colon, oral daily 7 days, mean ± SEM
Protocol: as §2, §3, §4

ICAM-1 = experiment: TNBS rat colitis: colonic ICAM-1 mRNA by real-time PCR; assay type: in vivo; conditions: colon, oral daily 7 days, mean ± SEM
Protocol: as §2, §3, §4

TFF-3 = experiment: TNBS rat colitis: colonic TFF-3 mRNA by real-time PCR; assay type: in vivo; conditions: colon, oral daily 7 days, mean ± SEM
Protocol: as §2, §3, §4

IL-6 = experiment: TNBS rat colitis: colonic IL-6 mRNA by real-time PCR; assay type: in vivo; conditions: colon, oral daily 7 days, mean ± SEM
Protocol: as §2, §3, §4

CINC-1 = experiment: TNBS rat colitis: colonic CINC-1 mRNA by real-time PCR; assay type: in vivo; conditions: colon, oral daily 7 days, mean ± SEM
Protocol: as §2, §3, §4

glutathione (GSH) = experiment: TNBS rat colitis: colonic total glutathione (GSH) content; assay type: in vivo; conditions: colonic tissue, oral daily 7 days, mean ± SEM
Protocol: as §2, §5

MCP-1 = experiment: TNBS rat colitis: colonic MCP-1 mRNA by real-time PCR; assay type: in vivo; conditions: colon, oral daily 7 days, mean ± SEM
Protocol: as §2, §3, §4

[6] = system: TNBS experimental rat colitis; experiment: TNBS rat colitis: microscopic (histological) damage score; assay type: in vivo; conditions: oral daily 7 days, mean ± SEM
Protocol: as §2
Cross-sections were selected and embedded in paraffin. Full-thickness sections of 5 μm were obtained at different levels and stained with haematoxylin and eosin. The histological damage was evaluated by a pathologist observer, who was blinded to the experimental groups, according to the criteria previously described by Galvez.

iNOS = experiment: TNBS rat colitis: colonic iNOS mRNA by real-time PCR; assay type: in vivo; conditions: colon, oral daily 7 days, mean ± SEM
Protocol: as §2, §3, §4

IL-1β [7] = experiment: TNBS rat colitis: colonic IL-1β by ELISA; assay type: in vivo; conditions: colonic tissue, oral daily 7 days, mean ± SEM
Protocol: as §2, §5

NCC1(CC(=O)O)CCCCC1 [Gabapentin]
referred pain (in words) [1]: attenuated
AUC ([1]; 30 mg/kg (table)): 27.30 ± 6.83^a arbitrary units
CRD ([2]; 30 mg/kg (table)): 0.25 ± 0.1^a units
qPCR IL-1β (IL-1β [3]; 30 mg/kg (table)): 8.28 ± 1.38^c fold increase
qPCR COX-2 (COX-2; 30 mg/kg (table)): 1.74 ± 0.36^c fold increase

calcium pyruvate [CaPyr]
MUC-2 mRNA expression (MUC-2; 20 mg/kg): 0.50 ± 0.14 fold increase
MUC-2 mRNA expression (MUC-2; 40 mg/kg): 0.53 ± 0.16 fold increase
MUC-2 mRNA expression (MUC-2; 100 mg/kg): 0.56 ± 0.11 fold increase
IL-17 mRNA expression (IL-17; 20 mg/kg): 0.84 ± 0.09 fold increase
IL-17 mRNA expression (IL-17; 40 mg/kg): 0.63 ± 0.27 fold increase
IL-17 mRNA expression (IL-17; 100 mg/kg): 1.83 ± 0.48 fold increase
IL-1β mRNA expression (IL-1β [4]; 20 mg/kg): 3.90 ± 0.61 fold increase
IL-1β mRNA expression (IL-1β [4]; 40 mg/kg): 2.40 ± 0.61 fold increase
IL-1β mRNA expression (IL-1β [4]; 100 mg/kg): 4.80 ± 0.90 fold increase
IL-12 mRNA expression (IL-12; 20 mg/kg): 1.09 ± 0.13 fold increase
IL-12 mRNA expression (IL-12; 40 mg/kg): 0.66 ± 0.18 fold increase
IL-12 mRNA expression (IL-12; 100 mg/kg): 1.62 ± 0.30 fold increase
MPO (myeloperoxidase (MPO); 20 mg/kg): 48.2 ± 7.2 mU/g tissue
MPO (myeloperoxidase (MPO); 40 mg/kg): 48.8 ± 8.2 mU/g tissue
MPO (myeloperoxidase (MPO); 100 mg/kg): 57.7 ± 11.5 mU/g tissue
Damage Score (0-10) ([5]; 20 mg/kg): 7.1 ± 0.4
Damage Score (0-10) ([5]; 40 mg/kg): 5.7 ± 0.4
Damage Score (0-10) ([5]; 100 mg/kg): 6.6 ± 0.6
Weight/length ([5]; 20 mg/kg): 186.0 ± 22.8 mg/cm
Weight/length ([5]; 40 mg/kg): 184.6 ± 25.1 mg/cm
Weight/length ([5]; 100 mg/kg): 198.9 ± 15.0 mg/cm
effect in TNBS-induced colitis (in words) ([5]; rats, 20, 40 and 100 mg/kg body weight, 7 days oral treatment): intestinal anti-inflammatory effects
efficacy in TNBS colitis compared with the other treatments (in words) ([5]; rats, 7 days oral treatment): more effective than ethyl pyruvate and even better than the therapeutic drug Sulphasalazine
IL-23 mRNA expression (IL-23; 20 mg/kg): 1.47 ± 0.24 fold increase
IL-23 mRNA expression (IL-23; 40 mg/kg): 1.02 ± 0.21 fold increase
IL-23 mRNA expression (IL-23; 100 mg/kg): 1.98 ± 0.30 fold increase
ICAM-1 mRNA expression (ICAM-1; 20 mg/kg): 1.64 ± 0.25 fold increase
ICAM-1 mRNA expression (ICAM-1; 40 mg/kg): 0.95 ± 0.19 fold increase
ICAM-1 mRNA expression (ICAM-1; 100 mg/kg): 2.77 ± 0.44 fold increase
TFF-3 mRNA expression (TFF-3; 20 mg/kg): 0.84 ± 0.23 fold increase
TFF-3 mRNA expression (TFF-3; 40 mg/kg): 0.67 ± 0.17 fold increase
TFF-3 mRNA expression (TFF-3; 100 mg/kg): 0.99 ± 0.19 fold increase
IL-6 mRNA expression (IL-6; 20 mg/kg): 5.41 ± 1.01 fold increase
IL-6 mRNA expression (IL-6; 40 mg/kg): 3.20 ± 1.20 fold increase
IL-6 mRNA expression (IL-6; 100 mg/kg): 4.61 ± 1.01 fold increase
CINC-1 mRNA expression (CINC-1; 20 mg/kg): 3.59 ± 0.49 fold increase
CINC-1 mRNA expression (CINC-1; 40 mg/kg): 2.93 ± 0.57 fold increase
CINC-1 mRNA expression (CINC-1; 100 mg/kg): 3.50 ± 0.90 fold increase
GSH (glutathione (GSH); 20 mg/kg): 389 ± 55 nmol/g tissue
GSH (glutathione (GSH); 40 mg/kg): 675 ± 67 nmol/g tissue
GSH (glutathione (GSH); 100 mg/kg): 768 ± 100 nmol/g tissue
MCP-1 mRNA expression (MCP-1; 20 mg/kg): 3.03 ± 0.49 fold increase
MCP-1 mRNA expression (MCP-1; 40 mg/kg): 1.80 ± 0.37 fold increase
MCP-1 mRNA expression (MCP-1; 100 mg/kg): 2.13 ± 0.41 fold increase
Microscopic Damage Score (0-59) ([6]; 20 mg/kg): 27 ± 2
Microscopic Damage Score (0-59) ([6]; 40 mg/kg): 18 ± 5
Microscopic Damage Score (0-59) ([6]; 100 mg/kg): 13 ± 2
iNOS mRNA expression (iNOS; 20 mg/kg): 10.37 ± 1.83 fold increase
iNOS mRNA expression (iNOS; 40 mg/kg): 8.85 ± 3.36 fold increase
iNOS mRNA expression (iNOS; 100 mg/kg): 9.15 ± 1.53 fold increase
IL-1β (ELISA) (IL-1β [7]; 20 mg/kg): 1095.0 ± 165.0 ng/g tissue
IL-1β (ELISA) (IL-1β [7]; 40 mg/kg): 765.0 ± 60.0 ng/g tissue
IL-1β (ELISA) (IL-1β [7]; 100 mg/kg): 810.1 ± 120.0 ng/g tissue

calcium pyruvate monohydrate [CPM]
referred pain (in words) [1]: attenuated
AUC ([1]; 40 mg/kg): 104.65 ± 20.48^a arbitrary units
AUC ([1]; 100 mg/kg): 63.70 ± 22.75^a arbitrary units
CRD ([2]; 40 mg/kg): 1.30 ± 0.14^c units
CRD ([2]; 100 mg/kg): 0.70 ± 0.14^a,c units
qPCR IL-1β (IL-1β [3]; 40 mg/kg): 7.82 ± 2.07^c fold increase
qPCR IL-1β (IL-1β [3]; 100 mg/kg): 5.52 ± 1.15^c fold increase
qPCR COX-2 (COX-2; 40 mg/kg): 2.47 ± 0.58^c fold increase
qPCR COX-2 (COX-2; 100 mg/kg): 1.60 ± 0.36^c fold increase
